{"source": "patent US20220096449A1", "about": "“METHOD OF TREATMENT WITH TRADIPITANT” (Vanda Pharmaceuticals Inc., priority 2018, published 2022)", "tested_on": "apomorphine-induced emesis", "assay": "Apomorphine emetic challenge in beagle dogs", "format": "in vivo, beagle dog", "conditions": "3.0 mg/kg oral, apomorphine 0.1 mg/kg iv 2 hours later, 5 dogs", "description": "Over the five (5) weeks of the study, each animal receives each of the treatments, but only one per week. The purpose of this study is to determine if tradipitant suppresses apomorphine-induced emesis.\nAll animals are dosed over a period of five (5) weeks, with each dog receiving one of five different treatments on each day of dosing.\nAll dogs are fasted overnight prior to each treatment day and then fed approximately one (1) hour after oral dosing (approximately one (1) hour prior to administration of apomorphine). Individual doses are adjusted weekly for changes in body weight.\nThe dose regimen consists of a 5×5 Latin square design, in which each subject receives 1 dose or dose combination per week (6 day washout) as shown in Table 3 below.", "note": "Marks after values point to notes of the source that are not given here."}
{"smiles": "C[C@@H](O[C@H]1OCCN(Cc2n[nH]c(=O)[nH]2)[C@H]1c1ccc(F)cc1)c1cc(C(F)(F)F)cc(C(F)(F)F)c1", "note": "[Aprepitant, reference compound]", "values": [{"measurement": "Total No. Emetic Episodes", "value": "1**"}]}
